Measurements reported in PubChem BioAssay AID1845228.

settings: pampa; 60.0 min; 50.0 µM

Row | SMILES | Papp [×10⁻⁶ cm/s]
1 | COc1cc2c(cc1OC)[C@@H](Cc1cc(OC)c(OC)c(OC)c1)[N+](C)(CCCOC(=O)CC/C=C/CCC(=O)OCCC[N+]1(C)CCc3cc(OC)c(OC)cc3[C@H]1Cc1cc(OC)c(OC)c(OC)c1)CC2 (some centres not stated) | < 1
2 | COc1ccc2c(c[n+](C)c3c4cc5c(cc4ccc23)OCO5)c1OC | 121
3 | Cn1cc(C2=C(c3cn(CCCSC(=N)N)c4ccccc34)C(=O)NC2=O)c2ccccc21 | < 1
4 | O=C1CCCC2=C1C(c1[nH]ncc1Cl)N=C(Nc1nc3ccccc3o1)N2 (configuration not stated) | 275
5 | N#Cc1cccc(NC(=O)c2sc3nc4c(cc3c2N)N2CCC4CC2)c1 | 142
6 | CN(CCCCCCN(C)C(=O)Oc1ccc[n+](C)c1)C(=O)Oc1ccc[n+](C)c1 | < 1
7 | Cn1nnnc1Sc1ncnc2scc(-c3ccc[nH]3)c12 | 126
8 | C[N+](C)([O-])CCNc1ccc(NCC[N+](C)(C)[O-])c2c1C(=O)c1c(O)ccc(O)c1C2=O | 40
9 | CC(=O)Nc1c2sscc-2n(C)c1=O | 16
10 | CN(C)CC1CCOC1(c1ccccc1)c1ccccc1 (configuration not stated) | 47
11 | CO/N=C(/C(=O)N[C@@H]1C(=O)N2C(C(=O)O)=CCS[C@H]12)c1csc(N)n1 | < 1
12 | CCO/N=C(\C(=O)N[C@@H]1C(=O)N2C(C(=O)O)=C(Sc3nc(-c4cc[n+](C)cc4)cs3)CS[C@H]12)c1nsc(NP(=O)(O)O)n1 | 2
13 | COc1cc(Cc2cnc(N)nc2N)cc(OC)c1OC | 14
14 | CC1(C)S[C@@H]2[C@@H](N3C(=O)[C@@H](c4ccccc4)NC3(C)C)C(=O)N2[C@H]1C(=O)O | > 300
15 | CCC(=O)O[C@@H](OP(=O)(CCCCc1ccccc1)CC(=O)N1C[C@H](C2CCCCC2)C[C@H]1C(=O)O)C(C)C (some centres not stated) | 118
16 | CCOc1ccc(CCNC(=O)c2cc3ccccc3n2Cc2cccc(C)n2)cc1OCC | 271

Row | SMILES | Papp [×10⁻⁶ cm/s]
17 | NC(=O)C1=C(O)[C@@]2(O)C(=O)C3=C(O)c4c(O)cccc4C[C@H]3C[C@H]2CC1=O | 9
18 | CC#CCC(C)[C@H](O)/C=C/[C@@H]1[C@H]2c3cccc(CCCC(=O)O)c3O[C@H]2C[C@H]1O (some centres not stated) | < 1
19 | CS/C=C/C(=O)O[C@@H]1CCC2=CC(=O)C(=C(C)C)C[C@]2(C)[C@H]1C | 77
20 | Cn1nnnc1Sc1ncnc2scc(-c3ccsc3)c12 | 173
21 | CCCN[C@H]1CCc2nc(N)sc2C1 | 4
22 | COc1cc(-c2nc(Cn3nnc(C(=O)Nc4cc(C)cc(C)c4)c3C)c(C)o2)cc(OC)c1OC | 17
23 | C1CCC(COCCc2noc(C3CNC3)n2)C1 | < 1
24 | O=C(C[C@@H]1NCCC[C@H]1O)Cn1cnc2cc(Br)c(Cl)cc2c1=O | 43
25 | CC(=O)OCC1=C(C(=O)O)N2C(=O)[C@@H](N)[C@H]2SC1 | < 1
26 | CC(=O)Nc1ccc(C(=O)NC(C)(C)C)cc1 | 2
27 | O=C(NO)c1cnc(NC2(c3ccccc3)CC2)nc1 | 2
28 | Nc1nc(/C(=C/CC(=O)O)C(=O)N[C@@H]2C(=O)N3C(C(=O)O)=CCS[C@H]23)cs1 | 18
29 | COc1ccc(Cl)cc1NC(=O)c1sc2nc3c(cc2c1N)N1CCC3CC1 | < 1
30 | Cc1cccc(NC(=O)c2ccc(C(F)(F)F)cc2C(=O)O)n1 | < 1
31 | NCc1ccccc1CC(=O)N[C@@H]1C(=O)N2C(C(=O)O)=C(CSc3nnnn3CC(=O)O)CS[C@H]12 | < 1
32 | Cn1nnnc1Sc1ncnc2scc(-c3cccs3)c12 | 244

Further lines, results first:

Row | Papp [×10⁻⁶ cm/s] | SMILES
33 | 115 | Cc1ccnc(NC(c2cccc(O)c2)c2ccc3ccc(C)nc3c2O)c1 (configuration not stated)
34 | 231 | COCCn1cnc2c(c(-c3ccccc3)c(-c3ccccc3)n2Cc2ccc(OC)cc2)c1=N
35 | 137 | Cc1cc(C)nc(NC(=S)N2CCN(c3ccc(C(F)(F)F)cn3)CC2)c1
36 | 234 | CNC1CCC(N(Cc2ccc(OC)c(-c3ccc(C#N)cc3)c2)C(=O)c2sc3ccccc3c2Cl)CC1 (configuration not stated)
37 | 90 | Cc1cc2c(C(N)=O)cccc2n1-c1nc2c(c(NCc3ccccc3)n1)COCC2
38 | 259 | CC(=O)Nc1cccc(-n2c(=O)n(C3CC3)c(=O)c3c(Nc4ccc(I)cc4F)n(C)c(=O)c(C)c32)c1
39 | 9 | CC1(C)SCCN(S(=O)(=O)c2ccc(Oc3ccncc3)cc2)[C@H]1C(=O)NO
40 | 85 | O=C(Nc1ccc(S(=O)(=O)N2CCOCC2)cc1)c1cc(Cl)ccc1NS(=O)(=O)c1ccc(Cl)s1
41 | 79.5 | CC(C)c1cc(-c2n[nH]c(=O)n2-c2ccc3c(ccn3C)c2)c(O)cc1O
42 | 90 | N=c1c2c(-c3ccccc3)c(-c3ccccc3)n(Cc3ccccc3)c2ncn1CCNc1ccncc1
43 | < 1 | Cc1cc(=O)c(C(=O)N[C@@H](C(=O)N[C@@H]2C(=O)N3C(C(=O)O)=C(CSc4nnnn4C)CS[C@H]23)c2ccc(O)cc2)c[nH]1
44 | 296 | Cn1nnnc1Sc1ncnc2scc(-c3cccc(C(F)(F)F)c3)c12
45 | > 300 | Cn1nnnc1Sc1ncnc2scc(-c3cccc(F)c3)c12
46 | 53 | CN1CCN(CCCN2c3ccccc3Sc3ccc(C(F)(F)F)cc32)CC1
47 | 100 | COc1ccc2c(c1)C(c1ccc(F)cc1)=C(CN1CCCC1)CO2
48 | 45 | CCOc1ccc(C2C(C(=O)Nc3ccccc3OC)=C(C)Nc3c(C(=O)Nc4cccc(C)c4)cnn32)cc1 (configuration not stated)
49 | 42 | O=C1NCN(c2ccccc2)C12CCN(CCCC(c1ccc(F)cc1)c1ccc(F)cc1)CC2
50 | 7 | CCN(CC)CC(=O)Oc1ccc(NC(C)=O)cc1
51 | 63 | Cn1nnnc1Sc1ncnc2scc(-c3ccc(C#N)cc3)c12
52 | 12 | Cn1nnnc1Sc1ncnc2scc(-c3cccc4c3sc3ccccc34)c12

Row | Papp [×10⁻⁶ cm/s] | SMILES
53 | 3 | N=c1c2c(-c3ccccc3)cn(Cc3ccccc3)c2ncn1CCNCCO
54 | 269 | N=c1c2c(-c3ccccc3)c(-c3ccccc3)n(CCc3ccccc3)c2ncn1CC1CCCO1 (configuration not stated)
55 | 8.69 | CCNC1(C(N)=O)CN(c2nc(C)nc3c(-c4ccc(Cl)cc4)c(-c4ccccc4Cl)nn23)C1
56 | > 300 | Cn1nnnc1Sc1ncnc2scc(-c3ccc(C(F)(F)F)cc3)c12
57 | 180 | CCCCOC(=O)NS(=O)(=O)c1sc(CC(C)C)cc1-c1ccc(Cn2ccnc2)cc1
58 | 5 | Oc1ccc(/C=C/c2cc(O)cc(O)c2)cc1
59 | 151 | N=c1c2c(-c3ccccc3)cn(Cc3ccc(Br)cc3)c2ncn1CCCN1CCN(c2ccccc2)CC1
60 | > 300 | CCN(CC)CCNc1ccc(C)c2sc3ccccc3c(=O)c12
61 | 192 | Cc1ccc(-n2c(C)cc(-c3nnc4n3CCCCC4)c2C)cc1
62 | 3 | Cn1cc(C2=C(c3coc4ccccc34)C(=O)NC2=O)c2cc(Br)ccc21
63 | > 300 | COc1cc2c(Nc3ccc(Cl)c(Cl)c3F)ncnc2cc1OCC1C[C@@H]2CN(C)C[C@@H]2C1 (some centres not stated)
64 | 36 | Nc1c2ccccc2nc2ccccc12
65 | 3 | CNc1ncc(-c2ccc3c(=O)c(C(=O)O)cn(C4CC4)c3c2C)cc1C
66 | 272 | COc1ccc(Cn2c(-c3ccccc3)c(-c3ccccc3)c3c(=N)n(CC(OC)OC)cnc32)cc1
67 | 115 | COc1ccc(-n2nc(C(F)F)cc2-c2ccc(S(C)=O)cc2)cc1 (configuration not stated)
68 | 228 | CCOC(CCCn1cnc2c(c(-c3ccccc3)c(-c3ccccc3)n2Cc2ccccc2)c1=N)OCC
69 | < 1 | CC(C)N(CCCNC(=O)Nc1ccc(C(C)(C)C)cc1)C[C@H]1O[C@@H](n2ccc3c(N)ncnc32)[C@H](O)[C@@H]1O
70 | 35 | O=C(NC1CCC(O)CC1)c1ccc(-c2ncc3cnc(-c4ccccc4)cn23)cc1 (configuration not stated)
71 | 66 | N=c1c2c(-c3ccccc3)c(-c3ccccc3)n(CCc3ccccc3)c2ncn1CCCO
72 | > 300 | Cc1ccccc1N(C)C1CN([S+](=O)([O-])c2cccc(C(F)(F)F)c2)C1
